For nine compounds, Ki results are on record in patent US12226412B2, “Heteroaryl-ketone fused azadecalin glucocorticoid receptor modulators” (Corcept Therapeutics, Inc., priority 2012, dated 2025).

Test [1] concerns the target T1, human recombinant GR (Homo sapiens, UniProt P04150).
T1 construct: purchased PanVera P2812
T1 sequence (P04150 1-777): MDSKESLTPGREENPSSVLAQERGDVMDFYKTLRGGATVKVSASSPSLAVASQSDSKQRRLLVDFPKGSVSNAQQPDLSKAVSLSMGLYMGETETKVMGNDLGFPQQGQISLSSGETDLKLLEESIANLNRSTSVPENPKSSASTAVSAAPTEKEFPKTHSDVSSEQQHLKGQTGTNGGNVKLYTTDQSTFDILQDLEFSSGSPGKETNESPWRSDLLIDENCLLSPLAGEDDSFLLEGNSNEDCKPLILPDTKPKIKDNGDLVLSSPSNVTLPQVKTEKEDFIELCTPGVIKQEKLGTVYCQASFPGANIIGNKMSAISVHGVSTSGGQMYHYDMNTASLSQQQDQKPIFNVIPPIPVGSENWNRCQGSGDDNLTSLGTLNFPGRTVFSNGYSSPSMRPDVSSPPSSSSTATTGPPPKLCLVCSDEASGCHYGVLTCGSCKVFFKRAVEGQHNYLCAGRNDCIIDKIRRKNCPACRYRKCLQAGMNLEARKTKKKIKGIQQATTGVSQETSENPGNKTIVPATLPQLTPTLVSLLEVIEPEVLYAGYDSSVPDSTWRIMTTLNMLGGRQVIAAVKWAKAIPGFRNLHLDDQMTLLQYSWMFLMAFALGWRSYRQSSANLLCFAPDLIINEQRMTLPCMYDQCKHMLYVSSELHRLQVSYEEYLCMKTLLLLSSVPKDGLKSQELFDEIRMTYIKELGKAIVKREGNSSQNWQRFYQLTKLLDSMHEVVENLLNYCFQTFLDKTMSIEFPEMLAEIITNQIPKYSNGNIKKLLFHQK
As to the kind of experiment: Human glucocorticoid receptor (GR) fluorescence polarisation (FP) binding assay. The method in brief:
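Competition fluorescence polarisation: 0.5 nM GS Red labelled glucocorticoid and 1 nM recombinant human GR with 8-point half-log compound series, 1% DMSO, 4 h room temperature, potassium phosphate pH 7.4 buffer with molybdate, EDTA, DTT. Affinity derived from the drop in polarisation, normalised to blank wells.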
For orientation: Fluorescence polarisation rises when a labelled molecule tumbles more slowly, as on binding a larger partner.

Test [2] concerns induction of TAT by dexamethasone in HepG2 cells. As to the kind of experiment: HepG2 tyrosine aminotransferase (TAT) assay. In kind it is cell-based, human.
[3] abbreviates: human recombinant GR, fluorescence polarisation binding assay, read-out: GR binding.
The mark [4] stands for this setting: HepG2 cells, challenge of 100 nM dexamethasone, Ki from IC50 by Cheng and Prusoff equation.

Like-named read-outs stand apart in the source and are kept apart here. Some results are limits rather than exact numbers.

As to `O=C(c1cc(C(F)(F)F)ccn1)[C@]12Cc3cnn(-c4ccc(F)cc4)c3C=C1CCN(S(=O)(=O)c1c[nH]cn1)C2` [Example 2W, (R)-(6-((1H-imidazol-4-yl)sulfonyl)-1-(4-fluorophenyl)-4,4a,5,6,7,8-hexahydro-1H-pyrazolo[3,4-g]isoquinolin-4a-yl)(4-(trifluoromethyl)pyridin-2-yl)methanone], the results for the Ki in test [1] (setting [3]) and in test [2] (setting [4]) were above 0.001 µM and 0.02 to 0.1 µM, respectively.
Taken in the same sequence, the figures for `O=C(c1ccccn1)[C@]12Cc3cnn(-c4ccc(F)cc4)c3C=C1CCN(S(=O)(=O)c1ccc(N3CCOCC3)nc1)C2` [Example 3, (R)-(1-(4-fluorophenyl)-6-((6-morpholinopyridin-3-yl)sulfonyl)-4,4a,5,6,7,8-hexahydro-1H-pyrazolo[3,4-g]isoquinolin-4a-yl)(pyridin-2-yl)methanone] were below 0.0005 µM and 0.02 to 0.1 µM.
In the case of `O=C(c1nccs1)[C@]12Cc3cnn(-c4ccc(F)cc4)c3C=C1CCN(S(=O)(=O)c1ccc(N3CCCC3)nc1)C2` [Example 4, (R)-(1-(4-fluorophenyl)-6-((6-(pyrrolidin-1-yl)pyridin-3-yl)sulfonyl)-4,4a,5,6,7,8-hexahydro-1H-pyrazolo[3,4-g]isoquinolin-4a-yl)(thiazol-2-yl)methanone], the Ki was below 0.0005 µM in test [1] (setting [3]) and at least 0.1 µM in test [2] (setting [4]).
For `O=C(c1nccs1)[C@]12Cc3cnn(-c4ccc(F)cc4)c3C=C1CCN(S(=O)(=O)c1ccc(F)cc1)C2` [Example 5, (R)-(1-(4-fluorophenyl)-6-((4-fluorophenyl)sulfonyl)-4,4a,5,6,7,8-hexahydro-1H-pyrazolo[3,4-g]isoquinolin-4a-yl)(thiazol-2-yl)methanone] the same measures were below 0.0005 µM and 0.02 to 0.1 µM.
In the case of `O=C(c1nccs1)[C@]12Cc3cnn(-c4ccc(F)cc4)c3C=C1CCN(S(=O)(=O)c1cccc(F)c1)C2` [Example 5A, (R)-(1-(4-fluorophenyl)-6-((3-fluorophenyl)sulfonyl)-4,4a,5,6,7,8-hexahydro-1H-pyrazolo[3,4-g]isoquinolin-4a-yl)(thiazol-2-yl)methanone], the Ki is below 0.0005 µM in test [1] (setting [3]) and below 0.02 µM in test [2] (setting [4]).
Consider `N#Cc1ccc(CS(=O)(=O)N2CCC3=Cc4c(cnn4-c4ccc(F)cc4)C[C@]3(C(=O)c3nccs3)C2)cc1` [Example 5B, (R)-4-(((1-(4-fluorophenyl)-4a-(thiazole-2-carbonyl)-4a,5,7,8-tetrahydro-1H-pyrazolo[3,4-g]isoquinolin-6 (4H)-yl)sulfonyl)methyl)benzonitrile], for which the Ki in test [1] (setting [3]) was below 0.0005 µM; in test [2] (setting [4]), at least 0.1 µM.
For the compound `O=C(c1ccccn1)[C@]12Cc3cnn(-c4ccc(F)cc4)c3C=C1CCN(S(=O)(=O)c1cccc(C(F)(F)F)c1)C2` [Example 5C, (R)-(1-(4-fluorophenyl)-6-((3-(trifluoromethyl)phenyl)sulfonyl)-4,4a,5,6,7,8-hexahydro-1H-pyrazolo[3,4-g]isoquinolin-4a-yl)(pyridin-2-yl)methanone], the Ki is below 0.0005 µM in test [1] and below 0.02 µM in test [2].
On to `Cn1ncnc1C(=O)[C@]12Cc3cnn(-c4ccc(F)cc4)c3C=C1CCN(S(=O)(=O)c1ccc(C(F)(F)F)cc1)C2` [Example 5D, (R)-(1-(4-fluorophenyl)-6-((4-(trifluoromethyl)phenyl)sulfonyl)-4,4a,5,6,7,8-hexahydro-1H-pyrazolo[3,4-g]isoquinolin-4a-yl)(1-methyl-1H-1,2,4-triazol-5-yl)methanone], for which the Ki in test [1] (setting [3]) is below 0.0005 µM; in test [2] (setting [4]), at least 0.1 µM.
Regarding `O=C(c1cnccn1)[C@]12Cc3cnn(-c4ccc(F)cc4)c3C=C1CCN(S(=O)(=O)c1ccc(C(F)(F)F)cc1)C2` [Example 5E, (R)-(1-(4-fluorophenyl)-6-((4-(trifluoromethyl)phenyl)sulfonyl)-4,4a,5,6,7,8-hexahydro-1H-pyrazolo[3,4-g]isoquinolin-4a-yl)(pyrazin-2-yl)methanone], the Ki was below 0.0005 µM in test [1] and 0.02 to 0.1 µM in test [2].
